# Results as given in US6576675B1, “Z-styryl sulfone anticancer agents” (Temple University - Of the Commonwealth System of Higher …, priority 1999, dated 2003).
# Assays:
# Type in all cases: cell-based
# [1] = tested on: Breast cell lines: MCF-7, BT-20, 435; experiment: Viability assay (Trypan blue exclusion), breast tumor cell lines; settings: 2.5 mM, 72 hours, read-out: % Death, tumor cell type Breast
# Protocol: (§1) The effect of the Z-styryl sulfones on normal fibroblasts and on tumor cells of breast, prostate and ovarian origin was examined utilizing the following cell lines: breast tumor cell lines: MCF-7, BT-20 and 435; prostate tumor cell lines LnCaP and DU-145; and ovarian tumor cell lines OVCAR and SKOV3. NIH/3T3 and HFL cells, which are normal murine and human fibroblasts, respectively, were also tested. LnCap is an androgen-dependent prostate tumor cell line. MCF-7 is an estrogen-responsive breast tumor cell line, while BT-20 and 435 are estrogen-unresponsive breast tumor cell lines. MCF-7, BT-20 and 435 were grown in Dulbecco's modified Eagle's medium (DMEM) containing 10% fetal bovine serum supplemented with penicillin and streptomycin. LnCaP and Du145 were cultured in RPMI with 10% fetal bovine serum containing penicillin and streptomycin. NIH3T3 and HFL cells were grown in DMEM containing 10% calf serum supplemented with penicillin and streptomycin. All cell cultures were maintained at 37° C. in a humidified atmosphere of 5% CO2.
# (§2) Cells were treated with test compound at 2.5 mM concentration and cell viability was determined after 72 hours by the Trypan blue exclusion method.
# (§3) Activity for each compound is reported as a range of cell induced death (% Death) with the lowest activity in the range of 10-20% and the highest being above 75%.
# [2] = tested on: Ovarian cell lines: OVCAR, SKOV3; experiment: Viability assay (Trypan blue exclusion), ovarian tumor cell lines; settings: Homo sapiens, 2.5 mM, 72 hours, read-out: % Death, tumor cell type Ovarian
# Protocol: as §1, §2, §3
# [3] = tested on: Prostate cell lines: LnCaP, DU-145; experiment: Viability assay (Trypan blue exclusion), prostate tumor cell lines; settings: 2.5 mM, 72 hours, read-out: % Death, tumor cell type Prostate
# Protocol: as §1, §2, §3
# [4] = tested on: Renal cell lines: CAKI-1, CAKI-2; experiment: Viability assay (Trypan blue exclusion), renal tumor cell lines; settings: 2.5 mM, 72 hours, read-out: % Death, tumor cell type Renal
# Protocol: as §2, §3
# (§4) The procedure of Example 22 was followed for certain of the (Z)-benzylsulfones, substituting the following cancer cell lines: lung, N417 and H157; renal, CAKI-1 and CAKI-2; glioma, U87 and SW1088.
# [5] = tested on: Glioma cell lines: U87, SW1088; experiment: Viability assay (Trypan blue exclusion), glioma cell lines; settings: Homo sapiens, 2.5 mM, 72 hours, read-out: % Death, tumor cell type Glioma
# Protocol: as §2, §3, §4
# [6] = tested on: Lung cell lines: N417, H157; experiment: Viability assay (Trypan blue exclusion), lung tumor cell lines; settings: 2.5 mM, 72 hours, read-out: % Death, tumor cell type Lung
# Protocol: as §2, §3, §4
smiles,measurement,setting,value
"O=S(=O)(/C=C\c1ccccc1)Cc1ccccc1 [Example 1, Z-styryl Benzylsulfone]",cytotoxicity at 2500 µM,[1],10 to 20%
same,cytotoxicity at 2500 µM,[2],10 to 20%
same,cytotoxicity at 2500 µM,[3],10 to 20%
"O=S(=O)(/C=C\c1ccccc1)Cc1ccc(Cl)cc1 [Example 2, Z-styryl 4-Chlorobenzylsulfone]",cytotoxicity at 2500 µM,[1],20 to 25%
same,cytotoxicity at 2500 µM,[2],20 to 25%
same,cytotoxicity at 2500 µM,[3],20 to 25%
"O=S(=O)(/C=C\c1ccccc1)Cc1ccccc1Cl [Example 3, Z-styryl 2-Chlorobenzylsulfone]",cytotoxicity at 2500 µM,[1],20 to 25%
same,cytotoxicity at 2500 µM,[2],20 to 25%
same,cytotoxicity at 2500 µM,[3],20 to 25%
"O=S(=O)(/C=C\c1ccccc1)Cc1ccc(F)cc1 [Example 4, Z-styryl 4-Fluorobenzylsulfone]",cytotoxicity at 2500 µM,[1],20 to 25%
same,cytotoxicity at 2500 µM,[2],20 to 25%
same,cytotoxicity at 2500 µM,[3],20 to 25%
"O=S(=O)(/C=C\c1ccc(Cl)cc1)Cc1ccccc1 [Example 5, Z-4-Chlorostyryl Benzylsulfone]",cytotoxicity at 2500 µM,[1],20 to 25%
same,cytotoxicity at 2500 µM,[2],20 to 25%
same,cytotoxicity at 2500 µM,[3],20 to 25%
same,cytotoxicity at 2500 µM,[4],20 to 25%
same,cytotoxicity at 2500 µM,[5],20 to 25%
same,cytotoxicity at 2500 µM,[6],20 to 25%
"O=S(=O)(/C=C\c1ccc(Cl)cc1)Cc1ccc(Cl)cc1 [Example 6, Z-4-Chlorostyryl 4-Chlorobenzylsulfone]",cytotoxicity at 2500 µM,[1],60 to 70%
same,cytotoxicity at 2500 µM,[2],60 to 70%
same,cytotoxicity at 2500 µM,[3],60 to 70%
same,cytotoxicity at 2500 µM,[4],60 to 70%
same,cytotoxicity at 2500 µM,[5],60 to 70%
same,cytotoxicity at 2500 µM,[6],60 to 70%
"O=S(=O)(/C=C\c1ccc(Cl)cc1)Cc1ccccc1Cl [Example 7, Z-4-Chlorostyryl 2-Chlorobenzylsulfone]",cytotoxicity at 2500 µM,[1],20 to 25%
same,cytotoxicity at 2500 µM,[2],20 to 25%
same,cytotoxicity at 2500 µM,[3],20 to 25%
same,cytotoxicity at 2500 µM,[4],20 to 25%
same,cytotoxicity at 2500 µM,[5],20 to 25%
same,cytotoxicity at 2500 µM,[6],20 to 25%
"O=S(=O)(/C=C\c1ccc(Cl)cc1)Cc1ccc(F)cc1 [Example 8, Z-4-Chlorostyryl 4-Fluorobenzylsulfone]",cytotoxicity at 2500 µM,[1],> 75%
same,cytotoxicity at 2500 µM,[2],> 75%
same,cytotoxicity at 2500 µM,[3],> 75%
same,cytotoxicity at 2500 µM,[4],> 75%
same,cytotoxicity at 2500 µM,[5],> 75%
same,cytotoxicity at 2500 µM,[6],> 75%
"O=S(=O)(/C=C\c1ccc(F)cc1)Cc1ccccc1 [Example 9, Z-4-Fluorostyryl Benzylsulfone]",cytotoxicity at 2500 µM,[1],20 to 25%
same,cytotoxicity at 2500 µM,[2],20 to 25%
same,cytotoxicity at 2500 µM,[3],20 to 25%
"O=S(=O)(/C=C\c1ccc(F)cc1)Cc1ccc(Cl)cc1 [Example 10, Z-4-Fluorostyryl 4-Chlorobenzylsulfone]",cytotoxicity at 2500 µM,[1],60 to 70%
same,cytotoxicity at 2500 µM,[2],60 to 70%
same,cytotoxicity at 2500 µM,[3],60 to 70%
same,cytotoxicity at 2500 µM,[4],60 to 70%
same,cytotoxicity at 2500 µM,[5],60 to 70%
same,cytotoxicity at 2500 µM,[6],60 to 70%
"O=S(=O)(/C=C\c1ccc(F)cc1)Cc1ccccc1Cl [Example 11, Z-4-Fluorostyryl 2-Chlorobenzylsulfone]",cytotoxicity at 2500 µM,[1],20 to 25%
same,cytotoxicity at 2500 µM,[2],20 to 25%
same,cytotoxicity at 2500 µM,[3],20 to 25%
same,cytotoxicity at 2500 µM,[4],20 to 25%
same,cytotoxicity at 2500 µM,[5],20 to 25%
same,cytotoxicity at 2500 µM,[6],20 to 25%
"O=S(=O)(/C=C\c1ccc(F)cc1)Cc1ccc(F)cc1 [Example 12, Z-4-Fluorostyryl 4-Fluorobenzylsulfone]",cytotoxicity at 2500 µM,[1],40 to 50%
same,cytotoxicity at 2500 µM,[2],40 to 50%
same,cytotoxicity at 2500 µM,[3],40 to 50%
same,cytotoxicity at 2500 µM,[4],40 to 50%
same,cytotoxicity at 2500 µM,[5],40 to 50%
same,cytotoxicity at 2500 µM,[6],40 to 50%
"O=S(=O)(/C=C\c1ccc(Br)cc1)Cc1ccccc1 [Example 13, Z-4-Bromostyryl Benzylsulfone]",cytotoxicity at 2500 µM,[1],20 to 25%
same,cytotoxicity at 2500 µM,[2],20 to 25%
same,cytotoxicity at 2500 µM,[3],20 to 25%
"O=S(=O)(/C=C\c1ccc(Br)cc1)Cc1ccc(Cl)cc1 [Example 14, Z-4-Bromostyryl 4-Chlorobenzylsulfone]",cytotoxicity at 2500 µM,[1],> 75%
same,cytotoxicity at 2500 µM,[2],> 75%
same,cytotoxicity at 2500 µM,[3],> 75%
same,cytotoxicity at 2500 µM,[4],> 75%
same,cytotoxicity at 2500 µM,[5],> 75%
same,cytotoxicity at 2500 µM,[6],> 75%
"O=S(=O)(/C=C\c1ccc(Br)cc1)Cc1ccccc1Cl [Example 15, Z-4-Bromostyryl 2-Chlorobenzylsulfone]",cytotoxicity at 2500 µM,[1],20 to 25%
same,cytotoxicity at 2500 µM,[2],20 to 25%
same,cytotoxicity at 2500 µM,[3],20 to 25%
same,cytotoxicity at 2500 µM,[4],20 to 25%
same,cytotoxicity at 2500 µM,[5],20 to 25%
same,cytotoxicity at 2500 µM,[6],20 to 25%
"O=S(=O)(/C=C\c1ccc(Br)cc1)Cc1ccc(F)cc1 [Example 16, Z-4-Bromostyryl 4-Fluorobenzylsulfone]",cytotoxicity at 2500 µM,[1],60 to 70%
same,cytotoxicity at 2500 µM,[2],60 to 70%
same,cytotoxicity at 2500 µM,[3],60 to 70%
same,cytotoxicity at 2500 µM,[4],60 to 70%
same,cytotoxicity at 2500 µM,[5],60 to 70%
same,cytotoxicity at 2500 µM,[6],60 to 70%
"Cc1ccc(/C=C\S(=O)(=O)Cc2ccccc2)cc1 [Example 17, Z-4-Methylstyryl Benzylsulfone]",cytotoxicity at 2500 µM,[1],20 to 25%
same,cytotoxicity at 2500 µM,[2],20 to 25%
same,cytotoxicity at 2500 µM,[3],20 to 25%
"Cc1ccc(/C=C\S(=O)(=O)Cc2ccc(Cl)cc2)cc1 [Example 18, Z-4-Methylstyryl 4-Chlorobenzylsulfone]",cytotoxicity at 2500 µM,[1],20 to 25%
same,cytotoxicity at 2500 µM,[2],20 to 25%
same,cytotoxicity at 2500 µM,[3],20 to 25%
same,cytotoxicity at 2500 µM,[4],20 to 25%
same,cytotoxicity at 2500 µM,[5],20 to 25%
same,cytotoxicity at 2500 µM,[6],20 to 25%
"Cc1ccc(/C=C\S(=O)(=O)Cc2ccccc2Cl)cc1 [Example 19, Z-4-Methylstyryl 2-Chlorobenzylsulfone]",cytotoxicity at 2500 µM,[1],20 to 25%
same,cytotoxicity at 2500 µM,[2],20 to 25%
same,cytotoxicity at 2500 µM,[3],20 to 25%
"Cc1ccc(/C=C\S(=O)(=O)Cc2ccc(F)cc2)cc1 [Example 20, Z-4-Methylstyryl 4-Fluorobenzylsulfone]",cytotoxicity at 2500 µM,[1],20 to 25%
same,cytotoxicity at 2500 µM,[2],20 to 25%
same,cytotoxicity at 2500 µM,[3],20 to 25%
same,cytotoxicity at 2500 µM,[4],20 to 25%
same,cytotoxicity at 2500 µM,[5],20 to 25%
same,cytotoxicity at 2500 µM,[6],20 to 25%
